Data reported in patent EP0100673A2, “A method of enhancing neurofiber regrowth” (THE RESEARCH FOUNDATION OF STATE UNIVERSITY OF NEW YORK, priority 1982, dated 1984).

Columns and labels:
Format in all cases: in vivo, rat
[1] = test system: muscles of the operated hindlimb; assay: Myofiber diameter by light microscopy after sciatic nerve severing and microsurgical repair; details: for % Difference Treated vs. Control: myofiber diameter
Procedure: (§1) lwenty raty art anenthetizve with sel rompun (0.5 cc total volume). The right sciatic nerve is exposed and severed with microneuroscissors, and subsequently repaired microsurgically with 6-8 circumferential microsutures using 10-0 nylon. Immediately following surgery the treated animals receive 12 mg/kg Ac leupeptin in 5% DMSO (dimethylsulphoxide) as a bath on their sciatic nerve, 0.25 cc. total volume. Then the treated animals are injected intramuscularly in right hindlimb with 0.25 cc of a solution containing 12 mg/kg Ac leupeptin in 5% DMSO. Control animals receive the same surgical treatment, but the bath and intramuscular injection consist only of the solvent and 5% DMSO.
(§2) Thereafter, treated animals are injected twice weekly in the operated hindlimb with 12 mg/kg Ac leupeptin in 5% DMSO (0.25 cc total volume) for periods of 1 week, 1 month, two months, three months - and six months. Control animals are injected with 0.25 cc of 5% DMSO twice weekly in the operated hindlimb for the same time period.
(§3) Two treated and two control animals are assigned to each of the stated time periods.
(§4) All animals are sacrified by an overdose of pentobarbital, 1.0 cc total volume. The gastro- cnemius, soleus and extensor digitorum longus muscles of the operated hindlimb are execised from origin to insertion, weighed and then frozen in isopentane in liquid nitrogen […]. For light microscopy, cryostat sections are cut, placed on slides and stained with hematoxylin and eosin and/or ATPase histochemistry at pH's of 4.3 and 10.4. Myofiber diameters are determined by photographing hematoxylin and eosin sections at a constant magnification in the light microscope.

[2] = test system: sciatic nerve; assay: Counts of myelinated axons 5.0 mm proximal to repair by light microscopy; details: for Counts of Myelinated Axons - 5.0mm. Proximal to Repair by Light Microscopy 1.0 X 10^5 µm^2 - of Area: 12 mg/kg in 5% DMSO, bath + i.m. twice weekly; for % Difference: treated vs. control
Procedure: as §1, §2, §3
A ten mm. portion of the repaired sciatic nerve is excised from each animal. This is fixed in 3.0% glutaraldehyde in 0.1 M sodium cacodylate, pH 7.3, overnight for electron microscopy. After post-fixation in 1.0% osmium tetroxide, ethanol dehydration and embedding in Polybed 812, both thick (1 micron) and thin (500 A°) transverse sections are cut on a ultramicrotome. Portions of the excised muscles receive similar preparation for electron microscopy.
Thick sections of the sciatic nerve are placed on microscope slots stained with toluidine blue and photographed at a constant magnification in the light microscope. Thin sections of both nerve and muscles are placed on 300 mesh copper grid calm, stained with uranyl acetate and lead citrate and photographed using a Hitachi HU-12 electron microscope.

[3] = test system: muscles of the operated hindlimb; assay: Wet weight of hindlimb muscles after sciatic nerve severing and microsurgical repair; details: for Average Wet Weight (g) of Muscles: 12 mg/kg in 5% DMSO, bath + i.m. twice weekly; for % Weight (+)gain or (-)loss Treated vs. Control / % Weight (+) gain (-) loss Treated vs. control / % Weight (+)gain or (-)loss: muscle wet weight; for % Weight (+) gain (-) loss Treated vs. control: One Week; for % Weight (+)gain or (-)loss: Three Month, treated vs. control
Procedure: as §1, §2, §3, §4

CC(=O)N[C@@H](CC(C)C)C(=O)N[C@@H](CC(C)C)C(=O)N[C@H](C=O)CCCNC(=N)N [Ac leupeptin, acetyl-L-leu-L-leu-L-argininal]
% Difference Treated vs. Control ([1]; Six Month, E.D.L.): +29%
% Difference Treated vs. Control ([1]; Six Month, GASTROCNEMIUS): +26%
% Difference Treated vs. Control ([1]; Six Month, SOLEUS): +30%
% Difference Treated vs. Control ([1]; Three Month, E.D.L.): +18%
% Difference Treated vs. Control ([1]; Three Month, GASTROCNEMIUS): +3%
% Difference Treated vs. Control ([1]; Three Month, SOLEUS): +9%
% Difference Treated vs. Control ([1]; Two Month, E.D.L.): +10%
% Difference Treated vs. Control ([1]; Two Month, GASTROCNEMIUS): +18%
% Difference Treated vs. Control ([1]; Two Month, SOLEUS): +10%
myofiber diameter ([1]; treated muscle compared to control): significantly greater myofiber diameter when compared to control
Counts of Myelinated Axons - 5.0mm. Proximal to Repair by Light Microscopy 1.0 X 10^5 µm^2 - of Area ([2]; One Month Treated): 1162 1.0 X 10^5 µm^2 - of Area
Counts of Myelinated Axons - 5.0mm. Proximal to Repair by Light Microscopy 1.0 X 10^5 µm^2 - of Area ([2]; One Week Treated): 1089 1.0 X 10^5 µm^2 - of Area
Counts of Myelinated Axons - 5.0mm. Proximal to Repair by Light Microscopy 1.0 X 10^5 µm^2 - of Area ([2]; Six Month Treated): 1748 1.0 X 10^5 µm^2 - of Area
Counts of Myelinated Axons - 5.0mm. Proximal to Repair by Light Microscopy 1.0 X 10^5 µm^2 - of Area ([2]; Three Month Treated): 2200 1.0 X 10^5 µm^2 - of Area
Counts of Myelinated Axons - 5.0mm. Proximal to Repair by Light Microscopy 1.0 X 10^5 µm^2 - of Area ([2]; Two Month Treated): 1111 1.0 X 10^5 µm^2 - of Area
% Difference Treated Vs. Control ([2]; myelinated axons proximal, light microscopy, One Month): +7%
% Difference Treated vs. Control ([2]; myelinated axons proximal, light microscopy, One Week): +16%
% Difference Treated vs. Control ([2]; myelinated axons proximal, light microscopy, Six Month): +30%
% Difference ([2]; myelinated axons proximal, light microscopy, Three Month): +46%
% Difference ([2]; myelinated axons proximal, light microscopy, Two Month): +8%
Average Wet Weight (g) of Muscles ([3]; One Month Treated, E.D.L.): 0.198 g
Average Wet Weight (g) of Muscles ([3]; One Month Treated, GASTROCNEMIUS): .954 g
Average Wet Weight (g) of Muscles ([3]; One Month Treated, SOLEUS): .379 g
Average Wet Weight (g) of Muscles ([3]; One Week Treated, E.D.L.): 0.116 g
Average Wet Weight (g) of Muscles ([3]; One Week Treated, GASTROCNEMIUS): 2.379 g
Average Wet Weight (g) of Muscles ([3]; One Week Treated, SOLEUS): 0.335 g
Average Wet Weight (g) of Muscles ([3]; Six Month Treated, E.D.L.): 0.163 g
Average Wet Weight (g) of Muscles ([3]; Six Month Treated, GASTROCNEMIUS): 1.577 g
Average Wet Weight (g) of Muscles ([3]; Six Month Treated, SOLEUS): 0.306 g
Average Wet Weight (g) of Muscles ([3]; Three Month Treated, E.D.L.): 0.178 g
Average Wet Weight (g) of Muscles ([3]; Three Month Treated, GASTROCNEMIUS): 1.563 g
Average Wet Weight (g) of Muscles ([3]; Three Month Treated, SOLEUS): 0.248 g
Average Wet Weight (g) of Muscles ([3]; Two Months Treated, E.D.L.): 0.202 g
Average Wet Weight (g) of Muscles ([3]; Two Months Treated, GASTROCNEMIUS): 1.371 g
Average Wet Weight (g) of Muscles ([3]; Two Months Treated, SOLEUS): 0.425 g
average wet weight in grams in treated muscles ([3]; all time periods and muscles, vs. control): significantly greater than control
% Weight (+)gain or (-)loss Treated vs. Control ([3]; One Month, E.D.L.): +62%
% Weight (+)gain or (-)loss Treated vs. Control ([3]; One Month, GASTROCNEMIUS): +30%
% Weight (+)gain or (-)loss Treated vs. Control ([3]; One Month, SOLEUS): +19%
% Weight (+) gain (-) loss Treated vs. control ([3]; E.D.L.): +18%
% Weight (+) gain (-) loss Treated vs. control ([3]; GASTROCNEMIUS): +37%
% Weight (+) gain (-) loss Treated vs. control ([3]; SOLEUS): +13%
% Weight (+)gain or (-)loss Treated vs. Control ([3]; Six Month, E.D.L.): +18%
% Weight (+)gain or (-)loss Treated vs. Control ([3]; Six Month, GASTROCNEMIUS): +15%
% Weight (+)gain or (-)loss Treated vs. Control ([3]; Six Month, SOLEUS): +23%
% Weight (+)gain or (-)loss ([3]; E.D.L.): +13%
% Weight (+)gain or (-)loss ([3]; GASTROCNEMIUS): +18%
% Weight (+)gain or (-)loss ([3]; SOLEUS): +9%
% Weight (+)gain or (-)loss Treated vs. Control ([3]; Two Months, E.D.L.): +43%
% Weight (+)gain or (-)loss Treated vs. Control ([3]; Two Months, GASTROCNEMIUS): +14%
% Weight (+)gain or (-)loss Treated vs. Control ([3]; Two Months, SOLEUS): +9%
